Data from patent US20180296456A1, “Decapeptide-12 Modulation of Sirtuin Gene Expression in Epidermal Keratinocyte Progenitors” (Escape Therapeutics, Inc., priority 2017, published 2018).
Ends that are not written are not given here. Peptide text beside a SMILES is read from it.

How the values were obtained:
[1] = MTT cell proliferation assay, melanoblasts; format: cell-based, human; conditions: human, MTT, 72 h, read-out: melanoblast proliferation rate after 72 hours
Description: (§1) Proliferation rates for three human cell lines (epidermal progenitors, melanoblasts, and fibroblasts) were determined using a TACS® MTT Cell Proliferation Kit. Cells were seeded at 2.5×10^4/well in 96-well plates in a humidified atmosphere with 5 percent CO2 at 37 degrees Celsius. Twenty-four hours later, the decapeptides were added to the corresponding wells at varying concentrations and incubated for 72 hours. The remainder of the procedure was performed following the manufacturer's protocol.

in vitro = format: cell-based; conditions: human, human epidermal progenitors
Description: Proliferation rates were determined using a TACS® MTT Cell Proliferation Kit (R&D systems, Minneapolis, Minn.). Cells were seeded at 2.5×10^4/well in 96-well plates in a humidified atmosphere with 5 percent CO2 at 37 degrees Celsius. Twenty-four hours later, decapeptide-12 or oxyresveratrol were added to the corresponding wells at varying concentrations (0, 3, 10, 30, 100, 300, and 1000 μM), and cultures were then incubated for 72 hours. The remainder of the procedure was performed following the manufacturer's protocol.
as §1

SIRT2 = SIRT2 transcription, semi-quantitative RT-PCR in human epidermal progenitors; format: cell-based; conditions: 72 h
Description: Human neonatal epidermal progenitors (Thermo Fisher Scientific, NY) were seeded in 6-well plates at a density of 2×10^5 cells/well. Each well received 2 ml of Epilife media containing 60 μM calcium chloride (Thermo Fisher Scientific, NY). Plates were incubated in a humidified chamber at 37 degrees Celsius and 5 percent CO2. Twenty-four hours later, cells were treated with various concentrations of oxyresveratrol or decapeptide-12 dissolved in PBS containing 5 percent DMSO. Control wells received vehicle only (5 percent DMSO and PBS). Final concentration of DMSO in each well was 0.05 percent.
After a 72 hour incubation period, cells were trypsinized and total RNA extracted, using RNeasy kit (Qiagen, Valencia, Calif.) according to the manufacturer's protocol.
RNA concentration was determined using nanodrop (Thermo fisher scientific, NY). Two μg of total RNA were used to synthesize cDNA using oligo dT primers and TaqMan reverse transcription reagents (Thermo fisher scientific, NY). The reaction was carried out in DNA Engine Peltier Thermal Cycler (Bio-Rad, Hercules, Calif.). The annealing temperature was 25 degrees Celsius for 10 minutes, followed by first strand synthesis at 48 degrees Celsius for 1 hour, and heat inactivation at 95 degrees Celsius for 5 minutes.
The SIRT1-7 primers (table 1) were designed using Primer3. The semi-quantitative PCR reactions were performed on a DNA Engine Peltier Thermo Cycler (Bio-Rad, Hercules, Calif.). PCR was carried under the following conditions: denaturation at 94 degrees Celsius for 2 minutes and primer extension at 54 degrees Celsius for 30 seconds in 34 cycles for SIRT 1-7 and the housekeeping gene 18S.
Samples were run and resolved on a 1.5 percent agarose gel containing 0.5 μg/ml of ethidium bromide and imaged using the FluorChem HD2 Imaging System (Protein simple, San Jose, Calif.). Densitometry analysis was carried out using the AlphaEase FC software (Protein simple, San Jose, Calif.). Intensity ratios were calculated as the intensity value for each gene divided by the intensity value of the internal control gene 18S.
The effect of the decapeptides P4, P4A, P4B, and P4C upon the transcription levels of sirtuins 1-7 was evaluated. Table 4 summarizes transcription levels for all four decapeptides with the corresponding genes, at tested concentrations of: 10, 30, 50, 100, and 300 (all in μM).

[2] = system: human epidermal progenitors; assay: Trypan blue dye exclusion cytotoxicity assay, 72 h, epidermal progenitors; format: cell-based; conditions: human epidermal progenitors; for cell death: 72 h, trypan blue
Description: Cellular toxicity was measured using a trypan blue dye exclusion assay. Cells were cultured in 6-well plates at a density of 4×10^5 cells/well. Each well received a different concentration of decapeptide-12 or oxyresveratrol (0, 3, 10, 30, 100, 300, and 1000 μM). Plates were incubated at 37 degrees Celsius in a humidified 5 percent CO2 chamber. After 72 h, an aliquot was taken and cells counted using a hemacytometer. Cytotoxicity was measured according to the following formula: [1−(# of cells in control−# of live cells in test sample)/# of cells in control]×100 percent.

human skin = conditions: previously reported; cited from earlier work
patients with dyschromia = conditions: topical cream containing 0.01 percent, twice daily for 8 weeks; cited from earlier work

Compound | viability at 72 h, 3 µM [1] [%] | viability at 72 h, 10 µM [1] [%] | viability at 72 h, 30 µM [1] [%] | viability at 72 h, 50 µM [1] [%] | viability at 72 h, 100 µM [1] [%] | viability at 72 h, 300 µM [1] [%] | viability at 72 h, 500 µM [1] [%] | viability at 72 h, 1000 µM [1] [%] | viability at 72 h, 3 µM (in vitro) [%] | viability at 72 h, 10 µM (in vitro) [%] | viability at 72 h, 30 µM (in vitro) [%] | viability at 72 h, 50 µM (in vitro) [%] | viability at 72 h, 100 µM (in vitro) [%] | viability at 72 h, 300 µM (in vitro) [%] | viability at 72 h, 500 µM (in vitro) [%] | viability at 72 h, 1000 µM (in vitro) [%] | SIRT2 transcription increase relative to control (SIRT2; 10 μM) [%] | SIRT2 transcription increase relative to control (SIRT2; 30 μM) [%] | SIRT2 transcription increase relative to control (SIRT2; 50 μM) [%] | SIRT2 transcription increase relative to control (SIRT2; 300 μM) [%] | other results
CCCCCCCCCCCCCCCC(=O)N[C@@H](Cc1ccc(O)cc1)C(=O)N[C@@H](CCCNC(=N)N)C(=O)N[C@@H](CO)C(=O)N[C@@H](CCCNC(=N)N)C(=O)N[C@@H](CCCCN)C(=O)N[C@H](Cc1ccc(O)cc1)C(=O)N[C@@H](CO)C(=O)N[C@@H](CO)C(=O)N[C@@H](Cc1c[nH]c2ccccc12)C(=O)N[C@@H](Cc1ccc(O)cc1)C(N)=O [P4B, Palmitoyl-YRSRK[*Y]SSWY-amide] (HELM PEPTIDE1{[CCCCCCCCCCCCCCCC(=O)[*:2]].Y.R.S.R.K.[dY].S.S.W.Y.[am]}$$$$V2.0) | 100 | 100 | 99 ± 1 | 98 ± 1 | 97 ± 2 | 96 ± 2 | 95 ± 2 | 94 ± 2 | 99 ± 1 | 99 ± 1 | 98 ± 1 | 98 ± 1 | 97 ± 1 | 97 ± 1 | 95 ± 2 | 94 ± 2 | 5 ± 1 | 8 ± 3 | 17 ± 6 | 40 ± 4 | SIRT2 transcription increase relative to control (SIRT2; 100 μM): 52 ± 4%
Ac-YRSRKYSSWY-NH2 [P4C, Acetyl-YRSRKYSSWY-amide] | 100 | 100 | 99 ± 1 | 98 ± 1 | 97 ± 2 | 96 ± 3 | 95 ± 2 | 95 ± 2 | 99 ± 1 | 99 ± 1 | 98 ± 1 | 98 ± 1 | 97 ± 1 | 97 ± 1 | 96 ± 2 | 96 ± 2 | 5.00 | 2 ± 1 | 1.00 | 31 ± 9 | SIRT2 transcription increase relative to control (SIRT2; 100 μM): 42 ± 1%
YRSRKYSSWY [decapeptide-12, YRSRKYSSWY] | 100 | 100 | 99 ± 1 | 98 ± 1 | 97 ± 1 | 97 ± 1 | 95 ± 2 | 95 ± 2 | 100 | 99 ± 1 | 98 ± 1 | 97 ± 1 | 97 ± 1 | 96 ± 1 | 96 ± 2 | 94 ± 2 | 4.1 ± 3 | 11.2 ± 3.7 | 21.5 ± 4.9 | 61.1± 6.8 | cell death ([2]; 100 μM): 3±1%; cell death ([2]; 1 mM): 7±2%; cytotoxicity compared with oxyresveratrol [2]: reduced cytotoxicity; SIRT2 transcription increase relative to control (SIRT2; 3 μM): 1 ± 1%; SIRT2 transcription increase relative to control (SIRT2; 10 μM, listed as P4): 4 ± 3%; SIRT2 transcription increase relative to control (SIRT2; 30 μM, listed as P4): 11 ± 4%; SIRT2 transcription increase relative to control (SIRT2; 50 μM, listed as P4): 22 ± 5%; SIRT2 transcription increase relative to control (SIRT2; 100 μM, listed as Deca): 35.4 ± 5.5%; SIRT2 transcription increase relative to control (SIRT2; 100 μM, listed as P4): 35 ± 5%; SIRT2 transcription increase relative to control (SIRT2; 300 μM, listed as P4): 61 ± 7%; SIRT2 transcription increase relative to control (SIRT2; 500 μM): 76 ± 6.1%; SIRT2 transcription increase relative to control (SIRT2; 1000 μM): 76 ± 7.1%; hypopigmenting efficacy (human skin): potent hypopigmenting efficacy; facial skin appearance (patients with dyschromia): overall improvement in facial skin appearance
